Measurements reported in patent publication US20250145715A1, “B7-H3 TARGETING FUSION PROTEINS AND METHODS OF USE THEREOF” (GT Biopharma, Inc., priority 2021, published 2025).

Experiments:
H929 cells = experiment: IncuCyte Zoom NK cell killing of H929; type: cell-based, human
Excerpt: FIGS. 8A-8D illustrate the ability of peripheral blood NK cells with or without B7-H3-TriKE to kill myeloma cells in live imaging IncuCyte Zoom assays. FIG. 8A is a graph showing the effects with effector:target (E:T) ratios of 2:1 and 4:1 on H929 cells. FIG. 8B is a graph showing the effects with effector:target (E:T) ratios of 2:1 and 4:1 on MM1S cells. FIG. 8C is a graph showing the effects with effector:target (E:T) ratios of 2:1 and 4:1 on RPMI-8226 cells. FIG. 8D is a graph showing the effects with effector:target (E:T) ratios of 2:1 and 4:1 on U266 cells.
FIGS. 9A-9D illustrate the efficacy of B7-H3-TriKE with the proteasome inhibitor bortezomib (10 nM) and the immunomodulatory drug lenalidomide (5 μM). FIG. 9A is a graph showing the effect of the combination therapy on H929 cells after 48 hours. FIG. 9B is a graph showing the effect of the combination therapy on RPMI-8226 cells after 48 hours. FIG. 9C is a graph showing the effect of the combination therapy on MM1S cells after 48 hours. FIG. 9D is a graph showing the effect of the combination therapy on U266 cells after 48 hours.
The ability of peripheral blood NK cells with or without B7-H3-TriKE to kill myeloma cells was compared in live imaging IncuCyte Zoom assays with escalating doses of TriKE. Maximal killing occurred with 3 nM concentration.
The efficacy of B7-H3-TriKE with the proteasome inhibitor bortezomib (10 nM) and the immunomodulatory drug lenalidomide (5 μM) was also tested. Cytotoxicity curves were compared by repeated measures ANOVA and performed in triplicate.

[1] = test system: C4-2 prostate cancer cells; experiment: NK cell CD107a / IFNγ flow cytometry against C4-2; type: cell-based, human; settings: normal donor and prostate cancer patient NK cells, vs controls
Excerpt: FIG. 15A is a graph showing pooled analysis of proportion of NK cells from healthy donors or prostate cancer patients expressing CD107a+ (top) or IFNγ (bottom) against C4-2 targets (N=9 for healthy donors, N=3 for patients). FIG. 15B is a graph showing pooled analysis of proportion of NK cells from healthy donors or prostate cancer patients expressing CD107a+ (top) or IFNγ (bottom) against DU145 targets (N=9 for healthy donors, N=3 for patients). FIG. 15C is a graph showing pooled analysis of proportion of NK cells from healthy donors or prostate cancer patients expressing CD107a+ (top) or IFNγ (bottom) against LNCaP targets (N=9 for healthy donors, N=3 for patients). FIG. 15D is a graph showing pooled analysis of proportion of NK cells from healthy donors or prostate cancer patients expressing CD107a+ (top) or IFNγ (bottom) against PC3 targets (N=9 for healthy donors, N=3 for patients). * p<0.05, ** p<0.01, *** p<0.001, and **** p<0.0001.
FIG. 23A is a graph illustrating percent CD107a+ NK cells in PBMCNK alone in the presence of 0.3 nM TriKE. […]
ADCC was measured in a flow cytometry assay by evaluating degranulation via CD107a (lysosomal-associated membrane protein LAMP-1) and intracellular IFNγ production. […] Samples were washed and evaluated in an LSRII flow cytometer (BD Biosciences, San Jose, CA, USA). […]

Row | Substance | NK cell killing of H929 (H929 cells; E:T 2:1) | NK cell killing of H929 (H929 cells; E:T 4:1) | NK cell IFNγ production against C4-2 [1] | NK cell degranulation (CD107a) against C4-2 [1]
1 | B7-H3 TriKE: camelid nanobodies targeting CD16 and B7-H3 joined by IL-15 and two linkers; sequence table equates the name with cam1615B7-H3 | more potently killed | no difference in killing | – | –
2 | cam1615B7-H3: second-generation TriKE: humanized camelid anti-CD16 VHH, human wild-type IL-15, anti-B7-H3 mAb 376.96 scFv; SEQ ID NO:1 | – | – | enhanced | enhanced
